Legend:
[1] = target: T1, BACE2 (Homo sapiens, UniProt Q9Y5Z0); assay: Assay A: binding studies using SPR based methods, immobilised BACE2; settings: CM5 chip, immobilised BACE2 enzyme ectodomain, acetate buffer pH 4.6, 4% DMSO
T1 construct: BACE2 enzyme ectodomain (derived from plasmid “pET17b-T7-hu proBACE2”); T7 (N); made in house
T1 sequence (Q9Y5Z0 63-473 limits assumed): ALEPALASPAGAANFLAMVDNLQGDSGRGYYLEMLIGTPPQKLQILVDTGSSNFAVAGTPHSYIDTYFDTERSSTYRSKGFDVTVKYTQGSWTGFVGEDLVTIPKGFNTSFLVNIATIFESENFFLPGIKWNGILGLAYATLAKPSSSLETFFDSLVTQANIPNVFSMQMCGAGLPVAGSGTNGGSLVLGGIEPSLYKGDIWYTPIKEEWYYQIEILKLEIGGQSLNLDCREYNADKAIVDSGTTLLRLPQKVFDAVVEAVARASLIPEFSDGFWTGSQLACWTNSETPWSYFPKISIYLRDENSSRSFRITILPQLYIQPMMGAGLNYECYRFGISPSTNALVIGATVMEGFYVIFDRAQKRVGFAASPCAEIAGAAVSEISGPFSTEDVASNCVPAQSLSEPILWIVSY

[2] = target: T2, BACE2 (Rattus norvegicus, UniProt Q6IE75); assay: Assay for BACE inhibition by measuring cellular TMEM27 cleavage; type: cell-based; settings: INS-TMEM27 (INS1e-derived) cells, ELISA of shed human TMEM27 in supernatant;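 note: inhibitor added 2 h before doxycycline-induced hTMEM27 expression, supernatant collected after further 46 h, endogenous BACE2 activity read as reduced TMEM27 shedding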
T2 construct: endogenous cellular BACE2 in the Ins1e rat cell line; endogenous in cells; host or cells: INS-TMEM27 (INS1e-derived rat cell line with doxycycline-inducible full-length hTMEM27)
T2 sequence (Q6IE75 63-514): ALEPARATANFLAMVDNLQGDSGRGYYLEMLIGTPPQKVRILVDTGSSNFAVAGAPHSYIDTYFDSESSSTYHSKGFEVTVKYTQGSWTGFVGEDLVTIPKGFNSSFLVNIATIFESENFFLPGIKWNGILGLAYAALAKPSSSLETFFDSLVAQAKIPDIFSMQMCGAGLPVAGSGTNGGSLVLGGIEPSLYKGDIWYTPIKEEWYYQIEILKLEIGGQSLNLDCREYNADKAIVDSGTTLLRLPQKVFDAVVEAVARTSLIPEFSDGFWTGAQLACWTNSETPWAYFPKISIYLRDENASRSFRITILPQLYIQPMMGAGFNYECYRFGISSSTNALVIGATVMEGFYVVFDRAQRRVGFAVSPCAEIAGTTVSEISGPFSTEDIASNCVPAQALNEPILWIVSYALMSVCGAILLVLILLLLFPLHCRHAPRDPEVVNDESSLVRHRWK

[3] = target: T3, BACE1 (Homo sapiens, UniProt P56817); assay: Cellular Abeta-lowering assay; type: cell-based; design: endogenous in cells; host or cells: HEK293 stably transfected with human APP695 wt; settings: HEK293 cells stably transfected with human APP wt (APP695), Aβ40 ELISA of supernatant after 18-20 hrs
[4] = target: T3, BACE1; assay: Assay A: binding studies using SPR based methods, immobilised BACE1; design: 6his-tagged full length BACE 1 expressed in SF9 cells; 6His; made in house; host or cells: SF9 insect cells; settings: CM5 chip, immobilised 6his-tagged full length BACE 1, acetate buffer pH 4.6, 4% DMSO;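 note: KD from a 1:1 kinetic fit (koff/kon) of real-time association and dissociation curves, or for fast binders from end-of-association equilibrium responses plotted against log concentration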

T3 sequence (P56817 46-501): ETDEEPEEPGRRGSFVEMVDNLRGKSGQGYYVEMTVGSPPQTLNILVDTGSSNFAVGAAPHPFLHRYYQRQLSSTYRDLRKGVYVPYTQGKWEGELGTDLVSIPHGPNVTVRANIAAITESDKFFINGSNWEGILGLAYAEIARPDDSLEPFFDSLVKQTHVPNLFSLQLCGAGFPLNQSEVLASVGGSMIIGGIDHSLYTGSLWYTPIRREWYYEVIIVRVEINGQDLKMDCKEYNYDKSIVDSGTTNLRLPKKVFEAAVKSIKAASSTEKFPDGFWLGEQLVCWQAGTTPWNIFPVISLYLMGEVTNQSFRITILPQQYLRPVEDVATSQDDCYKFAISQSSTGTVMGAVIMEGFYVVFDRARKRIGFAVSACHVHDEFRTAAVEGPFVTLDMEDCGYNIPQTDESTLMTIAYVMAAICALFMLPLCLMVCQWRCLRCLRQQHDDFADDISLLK

| SMILES | Kd [1] [nM] | IC50 [2] [nM] | IC50 [3] [nM] | Kd [4] [nM] |
| --- | --- | --- | --- | --- |
| NC1=NC(c2cc(NC(=O)c3ccc(Cl)cn3)ccc2F)(C2CC2)COC1 (racemic) [Example 22, (RS)-5-Chloro-pyridine-2-carboxylic acid [3-(5-amino-3-cyclopropyl-3,6-dihydro-2H-[1,4]oxazin-3-yl)-4-fluoro-phenyl]-amide] | 19 | 11 | 11 | 140 |
| C[C@@]1(c2cc(NC(=O)c3ccc(Cl)cn3)ccc2F)CO[C@H](Cc2ccccc2)C(N)=N1 [Example 28, 5-Chloro-pyridine-2-carboxylic acid [3-((3R,6R)— and (3S,6)-5-amino-6-benzyl-3-methyl-3,6-dihydro-2H-[1,4]oxazin-3-yl)-4-fluoro-phenyl]-amide] | 11 | 58 | 19 | 71 |
| C[C@@]1(c2cc(NC(=O)c3coc(C(F)(F)F)c3)ccc2F)COCC(N)=N1 [Example 36, 5-trifluoromethyl-furan-3-carboxylic acid [3-((R)-5-amino-3-methyl-3,6-dihydro-2H-[1,4]oxazin-3-yl)-4-fluoro-phenyl]-amide] | 955 | 120 | 550 | 2260 |
| C[C@@]1(c2cc(NC(=O)c3ncccc3F)ccc2F)COCC(N)=N1 [Example 37, 3-fluoro-pyridine-2-carboxylic acid [3-((R)-5-amino-3-methyl-3,6-dihydro-2H-[1,4]oxazin-3-yl)-4-fluoro-phenyl]-amide] | 20 | 17 | 240 | 283 |
| C[C@@]1(c2cc(NC(=O)c3ncc(C(F)(F)F)cc3Cl)ccc2F)COCC(N)=N1 [Example 38, 3-chloro-5-trifluoromethyl-pyridine-2-carboxylic acid [3-((R)-5-amino-3-methyl-3,6-dihydro-2H-[1,4]oxazin-3-yl)-4-fluoro-phenyl]-amide] | 32 | 44 | 21 | 39 |
| Cc1nc(C(=O)Nc2ccc(F)c([C@]3(C)COCC(N)=N3)c2)co1 [Example 39, 2-methyl-oxazole-4-carboxylic acid [3-((R)-5-amino-3-methyl-3,6-dihydro-2H-[1,4]oxazin-3-yl)-4-fluoro-phenyl]-amide] | 8 | 130 | 28 | 45 |
| C[C@@]1(c2cc(NC(=O)c3ccn(C(F)F)n3)ccc2F)COCC(N)=N1 [Example 40, 1-difluoromethyl-1H-pyrazole-3-carboxylic acid [3-((R)-5-amino-3-methyl-3,6-dihydro-2H-[1,4]oxazin-3-yl)-4-fluoro-phenyl]-amide] | 2 | 2 | 13 | 15 |
| C[C@@]1(c2cc(NC(=O)c3ncc(F)cc3F)ccc2F)COCC(N)=N1 [Example 41, 3,5-difluoro-pyridine-2-carboxylic acid [3-((R)-5-amino-3-methyl-3,6-dihydro-2H-[1,4]oxazin-3-yl)-4-fluoro-phenyl]-amide] | 6 | 4 | 26 | 54 |
| C[C@@]1(c2cc(NC(=O)c3ncoc3-c3ccccc3)ccc2F)COCC(N)=N1 [Example 45, 5-phenyl-oxazole-4-carboxylic acid [3-((R)-5-amino-3-methyl-3,6-dihydro-2H-[1,4]oxazin-3-yl)-4-fluoro-phenyl]-amide] | 3020 | 620 | 760 | 3940 |
| CC1(C)OCC(N)=N[C@]1(C)c1cc(NC(=O)c2ccc(Cl)cn2)ccc1F [Example 49, 5-chloro-pyridine-2-carboxylic acid [3-((R)-5-amino-2,2,3-trimethyl-3,6-dihydro-2H-[1,4]oxazin-3-yl)-4-fluoro-phenyl]-amide] | 22 | 66 | 4 | 15 |
| CC1(C)OC[C@@](C)(c2cccc(NC(=O)c3ccc(Cl)cn3)c2)N=C1N [Example 51, 5-chloro-pyridine-2-carboxylic acid [3-((R)-5-amino-3,6,6-trimethyl-3,6-dihydro-2H-[1,4]oxazin-3-yl)-phenyl]-amide] | 2 | 5 | 14 | 22 |

More lines, in order of falling Kd [1], values ahead:

| Kd [1] [nM] | IC50 [2] [nM] | IC50 [3] [nM] | Kd [4] [nM] | SMILES |
| --- | --- | --- | --- | --- |
| 2150 | > 10000 | 110 | 261 | CC1(c2cc(NC(=O)c3cc(-c4ccco4)on3)ccc2F)COCC(N)=N1 (racemic) [Example 75, 5-Furan-2-yl-isoxazole-3-carboxylic acid [3-((RS)-5-amino-3-methyl-3,6-dihydro-2H-[1,4]oxazin-3-yl)-4-fluoro-phenyl]-amide] |
| 2100 | 1400 | 39 | 900 | CC1(C)OCC(N)=N[C@]1(C)c1cc(NC(=O)c2ccc(OCC(F)(F)F)cn2)ccc1F [Example 50, 5-(2,2,2-trifluoro-ethoxy)-pyridine-2-carboxylic acid [3-((R)-5-amino-2,2,3-trimethyl-3,6-dihydro-2H-[1,4]oxazin-3-yl)-4-fluoro-phenyl]-amide] |
| 629 | 720 | 1350 | 10800 | C[C@@]1(c2cc(NC(=O)c3sccc3Cl)ccc2F)COCC(N)=N1 [Example 46, 3-chloro-thiophene-2-carboxylic acid [3-((R)-5-amino-3-methyl-3,6-dihydro-2H-[1,4]oxazin-3-yl)-4-fluoro-phenyl]-amide] |
| 115 | 52 | 350 | 1200 | C[C@@]1(c2cc(NC(=O)c3ncccc3OCC(F)(F)F)ccc2F)COCC(N)=N1 [Example 48, 3-(2,2,2-trifluoro-ethoxy)-pyridine-2-carboxylic acid [3-((R)-5-amino-3-methyl-3,6-dihydro-2H-[1,4]oxazin-3-yl)-4-fluoro-phenyl]-amide] |
| 98 | 837 | 130 | 394 | CC1(c2cc(NC(=O)c3ccc(Cl)cc3)ccc2F)COCC(N)=N1 (racemic) [Example 19, (RS)—N-[3-(5-amino-3-methyl-3,6-dihydro-2H-[1,4]oxazin-3-yl)-4-fluoro-phenyl]-4-chloro-benzamide] |
| 43 | 310 | 470 | 1820 | Cc1ccsc1C(=O)Nc1ccc(F)c([C@]2(C)COCC(N)=N2)c1 [Example 44, 3-methyl-thiophene-2-carboxylic acid [3-((R)-5-amino-3-methyl-3,6-dihydro-2H-[1,4]oxazin-3-yl)-4-fluoro-phenyl]-amide] |
| 6 | 140 | 50 | 58 | C[C@@]1(c2cc(NC(=O)c3ccc(Cl)cn3)ccc2F)CO[C@@H](Cc2ccccc2)C(N)=N1 (racemic) [Example 29, 5-Chloro-pyridine-2-carboxylic acid [3-((3R,6S)— and (3S,6R)-5-amino-6-benzyl-3-methyl-3,6-dihydro-2H-[1,4]oxazin-3-yl)-4-fluoro-phenyl]-amide] |
| 5 | 13 | 79 | 85 | Cn1cc(Cl)c(C(=O)Nc2ccc(F)c([C@]3(C)COCC(N)=N3)c2)n1 [Example 43, 4-chloro-1-methyl-1H-pyrazole-3-carboxylic acid [3-((R)-5-amino-3-methyl-3,6-dihydro-2H-[1,4]oxazin-3-yl)-4-fluoro-phenyl]-amide] |
| 4 | 16 | 15 | 28 | C[C@@]1(c2cc(NC(=O)c3ncc(Cl)cn3)ccc2F)COCC(N)=N1 [Example 35, 5-chloro-pyrimidine-2-carboxylic acid [3-((R)-5-amino-3-methyl-3,6-dihydro-2H-[1,4]oxazin-3-yl)-4-fluoro-phenyl]-amide] |

From patent US20130196984A1, “3-AMINO-5-PHENYL-56-DIHYDRO-2H-[1,4]OXAZINES” (Siena Biotech S.p.A., priority 2009, published 2013)
